This note sets out measurements from US20220218831A1, “DEGRADATION OF AURORA KINASE (AURK) BY CONJUGATION OF AURK INHIBITORS WITH E3 LIGASE LIGAND” (Nemucore Medical Innovations, Inc., priority 2019, published 2022).

The experiment in a line: Combination of the free target ligand of Formula II (GSK-1070916) with JQ1 (FIG. 3). As to conditions: GSK-1070916 combined with JQ1; FIG. 3 legend, no model or method printed.

On to `CCn1cc(-c2ccnc3[nH]c(-c4cccc(CN(C)C)c4)cc23)c(-c2ccc(NC(=O)N(C)C)cc2)n1` [GSK-1070916], for which the “effect of combination with JQ1” value was “synergistic effect”.
